As a reminder, the IC50 is the concentration at which inhibition is half-maximal. Usually inhibition stands for how much of the control response was suppressed.

The results in this text go back to US10882837B2, “Amide compounds and use thereof” (ALPHALA CO., LTD., priority 2017, dated 2021).

In one assay the target is T1, glucagon receptor (GCGR) (Homo sapiens, UniProt P47871).
T1 construct: expressed in transfected cells; host or cells: CHO-K1
As to the kind of experiment: Glucagon cAMP inhibition assay (Cisbio cAMP Dynamic 2 HTRF). The conditions noted are these: GCGR overexpressed CHO-K1 cells or human primary hepatocytes (not specified); glucagon at EC50. In kind it is cell-based. In outline: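 GCGR-overexpressing CHO-K1 cells or human primary hepatocytes in HBSS with 0.1% BSA and 800 nM IBMX, pre-incubated 30 min with compound (1% DMSO final), then stimulated 30 min at room temperature with glucagon at its EC50. cAMP measured by HTRF after 60 min lysis; IC50 from non-linear regression.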
Background: TR-FRET usually uses a lanthanide donor and a delayed reading to cut background.

A further assay concerns the target GCGR (Homo sapiens, UniProt P47871). As to the kind of experiment: I125-glucagon binding assay (competition, GCGR membrane fractions). On the set-up: expressed in transfected cells; host or cells: CHO-K1; inhibition: dose or concentration left out as unconfirmed. Conditions: for IC50: competition with I125-glucagon 0.0625 nM, membrane fractions from GCGR overexpressed CHO-K1 cells; for inhibition: read-out: percentage of inhibition (number in parenthesis in IC50 binding column). In outline:
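Membranes from CHO-K1 cells overexpressing GCGR (7.5 µg/well) were preincubated 5 min with serially diluted compound in 50 mM Tris pH 7.4, 0.5% BSA. I125-glucagon was then added at 0.0625 nM final and incubated 30 min at 25 °C. After filtration, bound radioactivity was counted and IC50 derived by non-linear regression.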

Sequence of GCGR (P47871 26-477, species assumed): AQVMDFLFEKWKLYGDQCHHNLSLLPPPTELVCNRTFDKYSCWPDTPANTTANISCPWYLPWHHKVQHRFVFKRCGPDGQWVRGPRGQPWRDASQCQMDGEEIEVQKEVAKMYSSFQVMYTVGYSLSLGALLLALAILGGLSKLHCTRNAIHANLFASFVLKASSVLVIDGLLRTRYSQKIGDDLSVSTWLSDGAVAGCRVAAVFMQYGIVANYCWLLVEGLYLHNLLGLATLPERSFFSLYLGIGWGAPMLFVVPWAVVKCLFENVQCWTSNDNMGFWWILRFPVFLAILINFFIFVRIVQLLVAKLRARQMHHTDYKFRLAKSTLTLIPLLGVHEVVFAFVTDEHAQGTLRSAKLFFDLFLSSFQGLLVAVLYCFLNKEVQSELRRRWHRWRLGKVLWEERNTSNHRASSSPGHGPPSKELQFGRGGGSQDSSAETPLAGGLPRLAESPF
T1 sequence (P47871 26-477, species assumed): as above

On glucagon receptor (GCGR), `CCCCC(Nc1ccc(C(=O)NCCC(=O)OCC)cc1)c1ccc(-c2noc(-c3ccccc3)n2)cc1` (stereo not shown) [Compound 2-7, ethyl 3-(4-((1-(4-(5-phenyl-1,2,4-oxadiazol-3-yl)phenyl)pentyl)amino)benzamido)propanoate] displayed an IC50 of 49 nM. On GCGR, the IC50 is 1210 nM and the inhibition came out at 27%.
As to `CCCCC(Nc1ccc(C(=O)NCCC(=O)O)cc1)c1ccc(-c2noc(-c3ccccc3)n2)cc1` (stereo not shown) [Compound 2-8, 3-(4-((1-(4-(5-phenyl-1,2,4-oxadiazol-3-yl)phenyl)pentyl)amino)benzamido)propanoic acid], the results for the IC50 at glucagon receptor (GCGR) and at GCGR were 934 nM and 70 nM, respectively.
On to `CCOC(=O)CCNC(=O)c1ccc(NC(CC(C)C)c2ccc(-c3noc(-c4ccccc4)n3)cc2)cc1` (stereo not shown) [Compound 2-9, ethyl 3-(4-((3-methyl-1-(4-(5-phenyl-1,2,4-oxadiazol-3-yl)phenyl)butyl)amino)benzamido)propanoate], for which the IC50 against glucagon receptor (GCGR) stood at 105 nM. Also, at GCGR, the IC50 came out at 1490 nM and the inhibition is 31%.
For `CC(C)CC(Nc1ccc(C(=O)NCCC(=O)O)cc1)c1ccc(-c2noc(-c3ccccc3)n2)cc1` (stereo not shown) [Compound 2-10, 3-(4-((3-methyl-1-(4-(5-phenyl-1,2,4-oxadiazol-3-yl)phenyl)butyl)amino)benzamido)propanoic acid], the IC50 on glucagon receptor (GCGR) turned out to be 959 nM; on GCGR, 124 nM.
Consider `CCOC(=O)CCNC(=O)c1ccc(NC(c2ccc(-c3noc(-c4cccs4)n3)cc2)C(C)C)cc1` (stereo not shown) [Compound 2-11, ethyl 3-(4-((2-methyl-1-(4-(5-(thiophen-2-yl)-1,2,4-oxadiazol-3-yl)phenyl)propyl)amino)benzamido)propanoate], for which the half-inhibitory concentration (IC50) on glucagon receptor (GCGR) was found to be 180 nM. Besides, at GCGR, the IC50 is 3060 nM and the inhibition turned out to be 38%.
In the case of `CC(C)C(Nc1ccc(C(=O)NCCC(=O)O)cc1)c1ccc(-c2noc(-c3cccs3)n2)cc1` (stereo not shown) [Compound 2-12, 3-(4-((2-methyl-1-(4-(5-(thiophen-2-yl)-1,2,4-oxadiazol-3-yl)phenyl)propyl)amino)benzamido)propanoic acid], the IC50 against glucagon receptor (GCGR) is 504 nM; on GCGR, 354 nM.
The matching figures for `CCCCC(Nc1ccc(C(=O)NCCC(=O)O)cc1)c1ccc(-c2noc(-c3cccs3)n2)cc1` (stereo not shown) [Compound 2-13, 3-(4-((1-(4-(5-(thiophen-2-yl)-1,2,4-oxadiazol-3-yl)phenyl)pentyl)amino)benzamido)propanoic acid]: 312 nM and 126 nM.
With `CC(C)CC(Nc1ccc(C(=O)NCCC(=O)O)cc1)c1ccc(-c2noc(-c3cccs3)n2)cc1` (stereo not shown) [Compound 2-14, 3-(4-((3-methyl-1-(4-(5-(thiophen-2-yl)-1,2,4-oxadiazol-3-yl)phenyl)butyl)amino)benzamido)propanoic acid], the half-maximal inhibitory concentration (IC50) against glucagon receptor (GCGR) came to 1390 nM; at GCGR, 274 nM.
For `O=C(O)CCNC(=O)c1ccc(NC(c2ccc(-c3noc(-c4ccccc4)n3)cc2)C2CCCC2)cc1` (stereo not shown) [Compound 2-15, 3-(4-((cyclopentyl(4-(5-phenyl-1,2,4-oxadiazol-3-yl)phenyl)methyl)amino)benzamido)propanoic acid] the same measures were 450 nM and 106 nM.
On to `CCOC(=O)CCNC(=O)c1ccc(NC(c2ccc(-c3noc(-c4ccccc4)n3)cc2)C2CCCCC2)cc1` (stereo not shown) [Compound 2-16, ethyl 3-(4-((cyclohexyl(4-(5-phenyl-1,2,4-oxadiazol-3-yl)phenyl)methyl)amino)benzamido)propanoate], for which the IC50 against glucagon receptor (GCGR) was 438 nM; at GCGR, 178 nM.
In the case of `O=C(O)CCNC(=O)c1ccc(NC(c2ccc(-c3noc(-c4ccccc4)n3)cc2)C2CCCCC2)cc1` (stereo not shown) [Compound 2-17, 3-(4-((cyclohexyl(4-(5-phenyl-1,2,4-oxadiazol-3-yl)phenyl)methyl)amino)benzamido)propanoic acid], the concentration for half-maximal inhibition (IC50) at glucagon receptor (GCGR) was 511 nM; on GCGR, 54 nM.
